According to US10087404B2, “Biological corrosion inhibitor for metals” (KURARAY CO., LTD., priority 2014, dated 2018):

Experiments:
[1] = system: strain Methanococcus maripaludis KA-1; test: Biological corrosion suppression test (eluted iron concentration from iron flake); format: cell-based; details: 37° C., eluted iron measured at 7, 14, 21 and 28 days
Procedure: A biological corrosion suppression test of 3-Methylglutaraldehyde was performed as follows.
The liquid A was purged with a N2 gas for approximately 10 minutes and heated in an autoclave at 121° C. for 20 minutes, and then the liquid C, liquid E, liquid S, and liquid V were added thereto. 20 ml of the resulting mixture liquid was introduced into each of vials containing a sterilized iron flake (0.08 g of iron foil (10 mm length×10 mm width×0.1 mm thickness: Sigma-Aldrich 356808-G)). Each vial was purged with a gas (CO2 gas was mixed into N2 gas so as to give final concentration of 20% CO2 gas) for 5 minutes and then quickly closed with a butyl rubber cap, and the cap was fixed securely with an aluminum seal. After that, 0.5 ml (10^6 to 10^9 cells/ml) of the strain Methanococcus maripaludis KA-1 was added with a syringe, and 3-methylglutaraldehyde was further added so as to give the concentration shown in FIG. 1. Each vial was allowed to stand at 37° C., and the concentration of eluted iron was measured at 7 days, 14 days, 21 days, and 28 days for checking the progress of the biological corrosion of the iron flake. […]

[2] = Contact of acetal compound A with hydrochloric acid aqueous solution pH 4.0, analysed by gas chromatography; format: physicochemical; details: nitrogen atmosphere
Procedure: Hydrochloric acid was added to distilled water to adjust the pH to 4.0, thereby preparing a hydrochloric acid aqueous solution. To 100 g of the hydrochloric acid solution was added 2.0 g of an acetal compound represented by the following formula:
[drawing 5] (hereinunder, referred to as acetal compound A), and the mixture was stirred at 80° C. under nitrogen atmosphere. After 1 hour, a part was taken and analyzed by a gas chromatography. As a result, it was confirmed that 97.2% of the acetal compound A was consumed and 3-methylglutaraldehyde was produced at 82.6%. [Conditions of Gas Chromatography]
Hydrochloric acid was added to distilled water to adjust the pH to 4.0, thereby preparing a hydrochloric acid aqueous solution. To 100 g of the hydrochloric acid solution was added 2.0 g of the acetal compound A, and the mixture was stirred at 30° C. under nitrogen atmosphere. After 50 hours, a part was taken and analyzed by a gas chromatography in the same manner as in Example 3. As a result, it was confirmed that 52.5% of the acetal compound A was consumed and 3-methylglutaraldehyde was produced at 47.3%.

In the case of `CC(CC=O)CC=O` [3-methylglutaraldehyde], the “addition concentration at which the concentration of eluted iron was suppressed to a sufficiently low level” value [1] is reported as 1 ppm.

In the case of `CC(CC=O)CC1OCCO1` (stereo not shown) [acetal compound A], the “acetal compound A consumed” value ([2]; hydrochloric acid aqueous solution pH 4.0, 30° C., after 50 hours) is reported as 52.5% and the “acetal compound A consumed” value ([2]; hydrochloric acid aqueous solution pH 4.0, 80° C., after 1 hour) is reported as 97.2%.

In the case of `O=CCCCC=O` [glutaraldehyde, reference compound], the “addition concentration at which the concentration of eluted iron was suppressed to a sufficiently low level” value [1] is reported as 100 ppm.
